Patent US9707233B2, “Heterocyclylamines as PI3K inhibitors” (Incyte Corporation, priority 2011, dated 2017)
pIC50: −log10 of the molar value. Structures can show the parent of a compound that is named as a salt.

These compounds were tested against PI3Kδ (p110δ/p85α) (Homo sapiens (Human), UniProt O00329) (assay: PI3Kδ scintillation proximity assay (Example A3)). Conditions: 20 μM ATP, 20 μM PIP2, 4 nM PI3Kδ; read-out: PI3Kδ SPA IC50.
Assay type: biochemical
Method in brief: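 Human PI3Kδ (p110δ/p85α, 4 nM) with 20 μM PIP2 and 20 μM ATP plus [γ-33P]ATP in 20 mM MOPS pH 6.7, 10 mM MgCl2, 5 mM DTT, 0.03% CHAPS, 0.5% DMSO, room temperature. Reaction stopped with EDTA/excess ATP; product captured on WGA SPA beads and counted. IC50 from percent control activity vs log inhibitor.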

Chain of PI3Kδ (p110δ/p85α) (O00329 whole entry): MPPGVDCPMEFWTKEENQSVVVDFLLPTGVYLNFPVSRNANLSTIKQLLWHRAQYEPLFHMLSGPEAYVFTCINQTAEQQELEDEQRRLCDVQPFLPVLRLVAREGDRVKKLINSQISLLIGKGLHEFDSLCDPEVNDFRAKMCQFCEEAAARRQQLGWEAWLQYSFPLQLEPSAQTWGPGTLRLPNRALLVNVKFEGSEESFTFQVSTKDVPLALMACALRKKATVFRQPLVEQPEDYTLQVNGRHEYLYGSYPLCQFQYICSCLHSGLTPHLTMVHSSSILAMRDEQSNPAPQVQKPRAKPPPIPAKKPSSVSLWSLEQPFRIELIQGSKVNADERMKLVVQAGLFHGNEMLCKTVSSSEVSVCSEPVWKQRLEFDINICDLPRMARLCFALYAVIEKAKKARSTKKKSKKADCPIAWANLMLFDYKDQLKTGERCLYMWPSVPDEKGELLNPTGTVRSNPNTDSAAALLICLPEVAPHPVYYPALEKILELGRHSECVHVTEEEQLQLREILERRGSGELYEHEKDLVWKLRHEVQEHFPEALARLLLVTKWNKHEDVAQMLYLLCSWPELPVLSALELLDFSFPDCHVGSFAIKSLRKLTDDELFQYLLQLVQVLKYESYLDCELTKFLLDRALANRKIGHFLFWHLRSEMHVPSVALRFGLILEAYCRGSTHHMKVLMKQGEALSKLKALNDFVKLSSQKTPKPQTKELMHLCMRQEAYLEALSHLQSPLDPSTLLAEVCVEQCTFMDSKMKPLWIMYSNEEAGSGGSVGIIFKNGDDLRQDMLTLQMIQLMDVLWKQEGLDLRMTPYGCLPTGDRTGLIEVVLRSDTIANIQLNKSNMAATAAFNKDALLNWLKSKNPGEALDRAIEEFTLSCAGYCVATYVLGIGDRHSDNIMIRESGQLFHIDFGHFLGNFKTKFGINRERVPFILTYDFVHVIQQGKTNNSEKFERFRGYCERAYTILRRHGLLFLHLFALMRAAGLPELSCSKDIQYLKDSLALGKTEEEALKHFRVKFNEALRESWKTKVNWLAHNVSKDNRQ
Chain of PI3Kδ (p110δ/p85α) (P27986 whole entry partner): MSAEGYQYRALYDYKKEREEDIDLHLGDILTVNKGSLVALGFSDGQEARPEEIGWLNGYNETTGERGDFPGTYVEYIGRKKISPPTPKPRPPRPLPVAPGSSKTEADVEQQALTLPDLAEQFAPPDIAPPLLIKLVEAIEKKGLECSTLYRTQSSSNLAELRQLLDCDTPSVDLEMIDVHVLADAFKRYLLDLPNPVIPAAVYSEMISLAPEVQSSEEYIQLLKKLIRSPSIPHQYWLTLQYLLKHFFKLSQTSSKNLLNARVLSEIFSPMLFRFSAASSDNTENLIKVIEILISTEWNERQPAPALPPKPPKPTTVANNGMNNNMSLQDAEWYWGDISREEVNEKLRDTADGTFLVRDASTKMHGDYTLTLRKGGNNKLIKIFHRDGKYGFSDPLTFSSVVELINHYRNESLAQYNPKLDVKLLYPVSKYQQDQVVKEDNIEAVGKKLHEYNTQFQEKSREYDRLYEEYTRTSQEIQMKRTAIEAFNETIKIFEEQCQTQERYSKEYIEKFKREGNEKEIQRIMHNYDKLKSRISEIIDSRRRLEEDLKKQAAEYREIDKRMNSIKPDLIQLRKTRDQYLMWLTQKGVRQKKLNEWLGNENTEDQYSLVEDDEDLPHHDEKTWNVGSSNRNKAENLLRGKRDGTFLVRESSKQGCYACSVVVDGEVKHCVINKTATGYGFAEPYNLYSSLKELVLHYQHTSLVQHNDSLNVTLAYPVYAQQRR

CCOc1c(C(C)n2nc(C(F)F)c3c(N)ncnc32)cc(Cl)c(F)c1C1CN(C(C)C)C1 (racemic) [Example 150, 1-{1-[5-Chloro-2-ethoxy-4-fluoro-3-(1-isopropylazetidin-3-yl)phenyl]ethyl}-3-(difluoromethyl)-1H-pyrazolo[3,4-d]pyrimidin-4-amine] and CCOc1c(C(C)n2nc(C(F)F)c3c(N)ncnc32)cc(Cl)c(F)c1C1CN(CC(C)(C)O)C1 (racemic) [Example 153, 1-[3-(3-{1-[4-Amino-3-(difluoromethyl)-1H-pyrazolo[3,4-d]pyrimidin-1-yl]ethyl}-5-chloro-2-ethoxy-6-fluorophenyl)azetidin-1-yl]-2-methylpropan-2-ol] cannot be ordered by pIC50: no less than 8.00 for the first, no less than 8.00 for the second.

CCOc1c(C(C)n2nc(-c3cn[nH]c3)c3c(N)ncnc32)cc(Cl)c(C)c1-c1ccc(C(=O)N(C)C)nc1 (racemic) [Example 48, 5-(3-{1-[4-amino-3-(1H-pyrazol-4-yl)-1H-pyrazolo[3,4-d]pyrimidin-1-yl]ethyl}-5-chloro-2-ethoxy-6-methylphenyl)-N,N-dimethylpyridine-2-carboxamide bis(trifluoroacetate)] and CCOc1c(C(C)n2nc(-c3cnc(N)nc3)c3c(N)ncnc32)cc(Cl)c(C)c1-c1ccc(C(=O)N(C)C)nc1 (racemic) [Example 58, 5-(3-{1-[4-amino-3-(2-aminopyrimidin-5-yl)-1H-pyrazolo[3,4-d]pyrimidin-1-yl]ethyl}-5-chloro-2-ethoxy-6-methylphenyl)-N,N-dimethylpyridine-2-carboxamide tris(trifluoroacetate)] cannot be ordered by pIC50: no less than 8.00 for the first, no less than 8.00 for the second.

CCOc1c(C(C)n2nc(C)c3c(N)ncnc32)cc(Cl)c(C#N)c1C1CN(S(=O)(=O)C(C)C)C1 (single isomer, unassigned) [Example 250, 4-[1-(4-Amino-3-methyl-1H-pyrazolo[3,4-d]pyrimidin-1-yl)ethyl]-6-chloro-3-ethoxy-2-[1-(isopropylsulfonyl)azetidin-3-yl]benzonitrile] and CCOc1c(C(C)n2nc(C)c3c(N)ncnc32)cc(Cl)c(C#N)c1C1CN(C(N)=O)C1 (single isomer, unassigned) [Example 256, 3-{3-[1-(4-Amino-3-methyl-1H-pyrazolo[3,4-d]pyrimidin-1-yl)ethyl]-5-chloro-6-cyano-2-ethoxyphenyl}azetidine-1-carboxamide] cannot be ordered by pIC50: no less than 8.00 for the first, no less than 8.00 for the second.

COc1c(C(C)n2nc(C)c3c(N)ncnc32)cc(Cl)c(C)c1CCC(=O)N(C)C (single isomer, unassigned) [Example 180, 3-(3-(1-(4-Amino-3-methyl-1H-pyrazolo[3,4-d]pyrimidin-1-yl)ethyl)-5-chloro-2-methoxy-6-methylphenyl)-N,N-dimethylpropanamide] and COc1c(C(C)n2nc(C)c3c(N)ncnc32)cc(Cl)c(C)c1C1CN(C(=O)[C@@H](C)O)C1 (stereo partly drawn) [Example 121, (2R)-1-(3-{3-[1-(4-Amino-3-methyl-1H-pyrazolo[3,4-d]pyrimidin-1-yl)ethyl]-5-chloro-2-methoxy-6-methylphenyl}azetidin-1-yl)-1-oxopropan-2-ol trifluoroacetate] cannot be ordered by pIC50: no less than 8.00 for the first, no less than 8.00 for the second.

First: CCOc1c(C(C)n2nc(CC)c3c(N)ncnc32)cc(Cl)c(C)c1-c1ccc(C(=O)N(C)C)nc1 (racemic) [Example 81, 5-{3-[1-(4-Amino-3-ethyl-1H-pyrazolo[3,4-d]pyrimidin-1-yl)ethyl]-5-chloro-2-ethoxy-6-methylphenyl}-N,N-dimethylpyridine-2-carboxamide]
Second: CCOc1c(C(C)n2nc(CF)c3c(N)ncnc32)cc(Cl)c(C)c1-c1ccc(C(=O)N(C)C)nc1 (racemic) [Example 86, 5-(3-{1-[4-Amino-3-(fluoromethyl)-1H-pyrazolo[3,4-d]pyrimidin-1-yl]ethyl}-5-chloro-2-ethoxy-6-methylphenyl)-N,N-dimethylpyridine-2-carboxamide bis(trifluoroacetate)]
The pIC50 of the first is lower: 6.70 to 7.30 for the first, no less than 8.00 for the second. The second is the more potent here.

CCOc1c(C(C)n2nc(C)c3c(N)ncnc32)cc(C)c(C#N)c1C1CN(CC(C)O)C1 (stereo in doubt) [Example 326, 4-[1-(4-amino-3-methyl-1H-pyrazolo[3,4-d]pyrimidin-1-yl)ethyl]-3-ethoxy-2-{1-[(2S)-2-hydroxypropyl]azetidin-3-yl}-6-methylbenzonitrile] and CCNC(=O)N1CC(c2c(C#N)c(Cl)cc(C(C)n3nc(C)c4c(N)ncnc43)c2OCC)C1 (single isomer, unassigned) [Example 258, 3-{3-[1-(4-Amino-3-methyl-1H-pyrazolo[3,4-d]pyrimidin-1-yl)ethyl]-5-chloro-6-cyano-2-ethoxyphenyl}-N-ethylazetidine-1-carboxamide] cannot be ordered by pIC50: no less than 8.00 for the first, no less than 8.00 for the second.

COc1c(C(C)n2nc(C)c3c(N)ncnc32)cc(Cl)c(Cl)c1C1CN(C2COC2)C1 (single isomer, unassigned) [Example 304, 1-{1-[4,5-Dichloro-2-methoxy-3-(1-oxetan-3-ylazetidin-3-yl)phenyl]ethyl}-3-methyl-1H-pyrazolo[3,4-d]pyrimidin-4-amine] and COc1c(C(C)n2nc(C)c3c(N)ncnc32)cc(Cl)c(Cl)c1C1CN(CCO)C1 (single isomer, unassigned) [Example 300, 2-(3-{3-[1-(4-Amino-3-methyl-1H-pyrazolo[3,4-d]pyrimidin-1-yl)ethyl]-5,6-dichloro-2-methoxyphenyl}azetidin-1-yl)ethano] cannot be ordered by pIC50: no less than 8.00 for the first, no less than 8.00 for the second.

First: CCOc1c(C(C)n2nc(C)c3c(N)ncnc32)cc(Cl)c(F)c1C1CNC(=O)O1 (single isomer, unassigned) [Example 355, 5-{3-[1-(4-amino-3-methyl-1H-pyrazolo[3,4-d]pyrimidin-1-yl)ethyl]-5-chloro-2-ethoxy-6-fluorophenyl}-1,3-oxazolidin-2-one]
Second: CCOc1c(C(C)n2nc(C)c3c(N)ncnc32)cc(Cl)c(C#N)c1C1CNC(=O)O1 (stereo not drawn) [323 (2nd peak), 4-[1-(4-amino-3-methyl-1H-pyrazolo[3,4-d]pyrimidin-1-yl)ethyl]-6-chloro-3-ethoxy-2-(2-oxo-1,3-oxazolidin-5-yl)benzonitrile]
The pIC50 of the first is lower: 6.70 to 7.30 for the first, no less than 8.00 for the second. The second is the more potent here.

CCOc1c(C(C)n2nc(C)c3c(N)ncnc32)cc(Cl)c(C#N)c1C1CN(CC2CCOCC2)C1 (single isomer, unassigned) [Example 232, 4-[1-(4-Amino-3-methyl-1H-pyrazolo[3,4-d]pyrimidin-1-yl)ethyl]-6-chloro-3-ethoxy-2-[1-(tetrahydro-2H-pyran-4-ylmethyl)azetidin-3-yl]benzonitrile] and CCOc1c(C(C)n2nc(C)c3c(N)ncnc32)cc(Cl)c(F)c1C1CN(C)C1 (racemic) [Example 145, 1-{1-[5-Chloro-2-ethoxy-4-fluoro-3-(1-methylazetidin-3-yl)phenyl]ethyl}-3-methyl-1H-pyrazolo[3,4-d]pyrimidin-4-amine] cannot be ordered by pIC50: no less than 8.00 for the first, no less than 8.00 for the second.

CCOc1c(C(C)n2nc(-c3cccc(F)c3)c3c(N)ncnc32)cc(Cl)c(C)c1-c1ccc(C(=O)N(C)C)nc1 (racemic) [Example 47, 5-(3-{1-[4-amino-3-(3-fluorophenyl)-1H-pyrazolo[3,4-d]pyrimidin-1-yl]ethyl}-5-chloro-2-ethoxy-6-methylphenyl)-N,N-dimethylpyridine-2-carboxamide bis(trifluoroacetate)] and CCOc1c(C(C)n2nc(C)c3c(N)ncnc32)cc(Cl)c(C#N)c1-c1ccnc(C(=O)N(C)C)c1 (single isomer, unassigned) [Example 334, 4-{3-[1-(4-amino-3-methyl-1H-pyrazolo[3,4-d]pyrimidin-1-yl)ethyl]-5-chloro-6-cyano-2-ethoxyphenyl}-N,N-dimethylpyridine-2-carboxamide] cannot be ordered by pIC50: no less than 8.00 for the first, no less than 8.00 for the second.

CCOc1c(C(C)n2nc(C)c3c(N)ncnc32)cc(C#N)c(C)c1-c1cnn(C)c1 (single isomer, unassigned) [Example 210, 5-[1-(4-Amino-3-methyl-1H-pyrazolo[3,4-d]pyrimidin-1-yl)ethyl]-4-ethoxy-2-methyl-3-(1-methyl-1H-pyrazol-4-yl)benzonitrile] and COc1c(C(C)n2nc(C)c3c(N)ncnc32)cc(Cl)c(C)c1-c1cncc(S(C)(=O)=O)c1 (single isomer, unassigned) [Example 172, 1-(1-(5-chloro-2-methoxy-4-methyl-3-(5-(methylsulfonyl)pyridin-3-yl)phenyl)ethyl)-3-methyl-1H-pyrazolo[3,4-d]pyrimidin-4-amine] cannot be ordered by pIC50: no less than 8.00 for the first, no less than 8.00 for the second.

In the case of COc1c(C(C)n2nc(C)c3c(N)ncnc32)cc(Cl)c(C)c1C1CN(C(C)C)C1 (single isomer, unassigned) [Example 1, 1-{1-[5-Chloro-3-(1-isopropylazetidin-3-yl)-2-methoxy-4-methylphenyl]ethyl}-3-methyl-1H-pyrazolo[3,4-d]pyrimidin-4-amine bis(trifluoroacetate)], the pIC50 was no less than 8.00.
